Results on 13 compounds are retold here after patent publication US9115147B2, “Tricyclic derivatives and their pharmaceutical use and compositions” (Cephalon, Inc., priority 2009, dated 2015).

pKi: −log10 of the molar value.

In the experiment the target is T1, human 5-HT6 receptor (Homo sapiens, UniProt P50406).
T1 construct: host or cells: CHO-K1 cells, stably transfected; membranes prepared in house
The experiment in a line: Human 5-HT6 Receptor Binding Assay ([3H]LSD, scintillation beads). As to conditions: membranes of CHO-K1 cells with recombinant human 5-HT6 receptor, 4 nM [3H]LSD, Cheng-Prusoff; read-out: Human 5-HT6 Ki app. A digest of the protocol: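 Membranes from CHO-K1 cells stably expressing human 5-HT6, 1.75 μg protein/well with scintillation beads, in 50 mM Tris pH 7.4, 4 mM CaCl2, saponin, ascorbic acid. Nonspecific binding with 10 μM serotonin. IC50 from variable-slope fit; Ki by Cheng-Prusoff.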

T1 sequence (P50406 whole entry): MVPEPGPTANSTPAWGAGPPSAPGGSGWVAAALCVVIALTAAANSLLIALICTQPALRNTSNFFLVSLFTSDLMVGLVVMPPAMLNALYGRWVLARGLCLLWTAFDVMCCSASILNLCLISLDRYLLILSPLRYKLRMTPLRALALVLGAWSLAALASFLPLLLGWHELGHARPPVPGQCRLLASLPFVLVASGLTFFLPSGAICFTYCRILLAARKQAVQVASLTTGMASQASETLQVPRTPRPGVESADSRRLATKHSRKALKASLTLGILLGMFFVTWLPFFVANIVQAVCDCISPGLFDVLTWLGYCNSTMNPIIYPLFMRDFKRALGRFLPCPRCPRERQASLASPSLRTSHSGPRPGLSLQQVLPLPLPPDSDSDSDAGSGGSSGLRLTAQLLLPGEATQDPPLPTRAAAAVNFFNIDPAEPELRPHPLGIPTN

In the case of `O=S(=O)(c1cncc(Br)c1)c1ccc2c(c1)OCC1C2CCN1C1CCC1` (single isomer, unassigned) [Example 78, 7-[(5-bromopyridin-3-yl)sulfonyl]-3-cyclobutyl-1,2,3,3a,4,9b-hexahydrochromeno[3,4-b]pyrrole], the negative logarithm of the Ki (pKi) is below 6.00.

Take `COc1cncc(S(=O)(=O)c2ccc3c(c2)OCC2C3CCN2C2CCC2)c1` (single isomer, unassigned) [Example 79, 3-cyclobutyl-7-[(5-methoxypyridin-3-yl)sulfonyl]-1,2,3,3a,4,9b-hexahydrochromeno[3,4-b]pyrrole]: the pKi was below 6.00. Then `O=S(=O)(c1cncc(F)c1)c1ccc2c(c1)OCC1C2CCN1C1CCC1` (single isomer, unassigned) [Example 80, 3-cyclobutyl-7-[(5-fluoropyridin-3-yl)sulfonyl]-1,2,3,3a,4,9b-hexahydrochromeno[3,4-b]pyrrole], with below 6.00; and `O=S(=O)(c1cncc(Cl)c1)c1ccc2c(c1)OCC1C2CCN1C1CCC1` (single isomer, unassigned) [Example 81, 7-[(5-chloropyridin-3-yl)sulfonyl]-3-cyclobutyl-1,2,3,3a,4,9b-hexahydrochromeno[3,4-b]pyrrole], with below 6.00; and `Cc1cccc(Sc2ccc3c(c2)OCC2C3CCN2C2CCC2)n1` (single isomer, unassigned) [Example 82, 3-cyclobutyl-7-[(6-methylpyridin-2-yl)sulfanyl]-1,2,3,3a,4,9b-hexahydrochromeno[3,4-b]pyrrole], with below 6.00. As for `Cc1cccc([S+]([O-])c2ccc3c(c2)OCC2C3CCN2C2CCC2)n1` (single isomer, unassigned) [Example 83, 3-cyclobutyl-7-[(6-methylpyridin-2-yl)sulfinyl]-1,2,3,3a,4,9b-hexahydrochromeno[3,4-b]pyrrole], the figure is below 6.00; as for `Cc1cccc(S(=O)(=O)c2ccc3c(c2)OCC2C3CCN2C2CCC2)n1` (single isomer, unassigned) [Example 84, 3-cyclobutyl-7-[(6-methylpyridin-2-yl)sulfonyl]-1,2,3,3a,4,9b-hexahydrochromeno[3,4-b]pyrrole], below 6.00. Then `Cc1cccc(S(=O)(=O)c2ccc3c(c2)OCC2C3CCN2C2CCC2)n1` (single isomer, unassigned) [Example 85, 3-cyclobutyl-7-[(6-methylpyridin-2-yl)sulfonyl]-1,2,3,3a,4,9b-hexahydrochromeno[3,4-b]pyrrole], with below 6.00; and `O=S(=O)(c1cncc(C(F)(F)F)c1)c1ccc2c(c1)OCC1C2CCN1C1CCC1` (single isomer, unassigned) [Example 86, 3-cyclobutyl-7-{[5-(trifluoromethyl)pyridin-3-yl]sulfonyl}-1,2,3,3a,4,9b-hexahydrochromeno[3,4-b]pyrrole], with below 6.00; and `O=S(=O)(c1cncc(C(F)(F)F)c1)c1ccc2c(c1)OCC1C2CCN1C1CCC1` (single isomer, unassigned) [Example 87, 3-cyclobutyl-7-{[5-(trifluoromethyl)pyridin-3-yl]sulfonyl}-1,2,3,3a,4,9b-hexahydrochromeno[3,4-b]pyrrole], with below 6.00. Regarding `O=S(=O)(c1ccccc1)c1ccc2c(c1)C1CCN(C3CCC3)C1CO2` (single isomer, unassigned) [Example 88, 3-cyclobutyl-8-(phenylsulfonyl)-1,2,3,3a,4,9b-hexahydrochromeno[3,4-b]pyrrole], the pKi was above 6.30. For the compound `O=S(=O)(c1ccccc1)c1ccc2c(c1)C1CCN(C3CCC3)C1CO2` (single isomer, unassigned) [Example 89, 3-cyclobutyl-8-(phenylsulfonyl)-1,2,3,3a,4,9b-hexahydrochromeno[3,4-b]pyrrole], the pKi was above 6.30. Regarding `O=S(=O)(c1ccccc1)c1ccc2c(c1)OCC1C2CCN1CCO` (single isomer, unassigned) [Example 90, 2-[7-(Phenylsulfonyl)-1,3a,4,9b-tetrahydrochromeno[3,4-b]pyrrol-3(2H)-yl]ethanol], the pKi is above 6.30.
